# Assay results published in paper PMC137065 (Journal of Biology, 2002).
# Several values for one entry are separate records, joined by “and”; a condition that tells them apart may be missing. Equal values may be shown once. Read-outs that look alike come from different tables or passages of the source.
# Assays:
# murine Smo = murine Smo (Mus musculus, UniProt P56726); test: filtration membrane-binding assay, Smo-containing membranes from 293T cells
# Smo^act-expressing cells = conditions: ref [11],[17]; cited from earlier work
# [1] = target: murine Smo W539L (Smo^act) (Mus musculus, UniProt P56726, W539L); test: filtration membrane-binding assay, Smo^act-containing membranes
# Hh signaling = test: luciferase-based reporter assay of Hh signaling in C3H10T1/2 cells; assay type: cell-based; conditions: for inhibition of Hh protein-activated versus agonist-activated cells: Hh protein (10 nM) or Hh-Ag 1.2 (200 nM); for effect on pathway activation by the agonist: cells activated by Hh-Ag 1.2 (200 nM)
# HA-tagged Smo = HA-tagged Smo (Mus musculus, UniProt P56726); test: whole cell/immunocomplex binding assay, Smo-transfected 293T cells; conditions: unlabeled competitor at 5 μM, 37°C, 2 hours
# [2] = Smo^wt, competition with [3H]-Hh-Ag 1.5 (0.4 nM)
# [3] = Smo^act, competition with [3H]-Hh-Ag 1.5 (0.4 nM)
# Sequence of murine Smo W539L (Smo^act) (P56726 33-793 W539L): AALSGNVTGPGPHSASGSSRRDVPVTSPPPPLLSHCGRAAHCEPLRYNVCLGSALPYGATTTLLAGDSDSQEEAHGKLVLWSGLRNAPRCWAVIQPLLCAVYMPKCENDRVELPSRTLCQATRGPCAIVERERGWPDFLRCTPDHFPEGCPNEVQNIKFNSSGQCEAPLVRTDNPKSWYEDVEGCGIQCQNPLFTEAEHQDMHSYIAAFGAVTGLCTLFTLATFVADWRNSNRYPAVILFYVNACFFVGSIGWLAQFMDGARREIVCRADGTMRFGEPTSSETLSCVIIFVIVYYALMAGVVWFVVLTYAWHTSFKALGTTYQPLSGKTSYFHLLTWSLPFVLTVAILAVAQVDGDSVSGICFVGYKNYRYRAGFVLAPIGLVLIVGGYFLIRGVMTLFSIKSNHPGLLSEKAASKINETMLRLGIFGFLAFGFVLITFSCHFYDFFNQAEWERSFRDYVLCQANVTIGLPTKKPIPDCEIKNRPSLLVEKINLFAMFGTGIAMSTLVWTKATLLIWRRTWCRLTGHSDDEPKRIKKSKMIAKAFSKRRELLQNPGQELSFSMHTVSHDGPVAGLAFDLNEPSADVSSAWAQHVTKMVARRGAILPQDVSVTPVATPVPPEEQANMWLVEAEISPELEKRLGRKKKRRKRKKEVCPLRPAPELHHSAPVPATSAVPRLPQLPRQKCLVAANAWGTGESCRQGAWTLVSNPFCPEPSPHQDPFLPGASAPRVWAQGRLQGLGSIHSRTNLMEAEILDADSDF
# Sequence of murine Smo (P56726 33-793): as the sequence (P56726 33-793 W539L) above, with L507W counted along it
# Sequence of HA-tagged Smo (P56726 33-793): as the sequence (P56726 33-793 W539L) above, with L507W counted along it
smiles,measurement,setting,value
COc1cccc(CN(C(=O)CC(C)(C)C)[C@H]2C[C@@H](C(=O)N3CCNCC3)N(Cc3ccc4c(c3)OCO4)C2)c1 [Cur61414],Ki,murine Smo; [2],44 nM
same,competition of [3H]-Hh-Ag 1.5 (2 nM) binding,murine Smo; competitor at 10 μM,significantly compete
same,potency on Smo^act-expressing cells,Smo^act-expressing cells,decreased potency
same,Ki on Smo^act- compared to Smo^wt-containing membranes,[1],seven-fold higher
same,Ki,[1]; [3],309 nM
same,inhibition of Hh protein-activated versus agonist-activated cells,Hh signaling,differ in their sensitivity
same,effect on pathway activation by the agonist,Hh signaling,inhibitory
same,competition of [3H]-Hh-Ag 1.5 (5 nM) binding,HA-tagged Smo,significantly compete
C[C@H]1CC[C@]2(NC1)O[C@H]1C[C@H]3[C@@H]4CC[C@H]5C[C@@H](O)CC[C@]5(C)[C@H]4CC[C@]3(C)[C@H]1[C@@H]2C [tomatadine],Hh signaling activity,Hh signaling; described in words,inactive
CC1=C2C[C@H]3[C@@H](CC=C4CC(=O)CC[C@@]43C)[C@@H]2CC[C@]12O[C@@H]1C[C@H](C)CN(CCNC(=O)CCCCCNC(=O)CCc3ccccc3)[C@H]1[C@H]2C [KAAD-cyclopamine],Ki,murine Smo,5.8 nM
same,competition of [3H]-Hh-Ag 1.5 (2 nM) binding,murine Smo,significantly compete
same,potency on Smo^act-expressing cells,Smo^act-expressing cells,decreased potency
same,Ki,[1],38.3 nM
same,Ki on Smo^act- compared to Smo^wt-containing membranes,[1],seven-fold higher
same,inhibition of Hh protein-activated versus agonist-activated cells,Hh signaling,Identical results
same,competition of [3H]-Hh-Ag 1.5 (5 nM) binding,HA-tagged Smo,significantly compete
CC1=C2C(=O)[C@H]3[C@@H](CC=C4C[C@@H](O)CC[C@@]43C)[C@@H]2CC[C@]12O[C@@H]1C[C@H](C)CN[C@H]1[C@H]2C [jervine],inhibition of Hh protein-activated versus agonist-activated cells,Hh signaling,Identical results
CNC1CCC(N(Cc2cccc(-c3ccncc3)c2)C(=O)c2sc3c(F)ccc(F)c3c2Cl)CC1 (stereo not shown) [Hh-Ag 1.5],Ki,murine Smo; [2],0.52 nM and ~0.5 nM
same,Kd,"murine Smo; saturation binding, approximately 45 hours at 37°C, one-site model",0.37 nM
same,competition of [3H]-Hh-Ag 1.5 (2 nM) binding,murine Smo; unlabeled competitor at 2 μM,completely competed out
same,Ki,[1]; [3],~0.5 nM
same,affinity for Smo^act,"[1]; kinetic and saturation binding assay, data not shown",affinity identical to that of Smo^wt
same,EC50,Hh signaling; cell-based reporter assay,~1 nM and 1 nM
same,increase of potency by chemical modification,Hh signaling; relative to Hh-Ag 1.1,over 1000 fold
same,competition of [3H]-Hh-Ag 1.5 (5 nM) binding,HA-tagged Smo,complete absence of counts in the immunocomplex
C=C[C@@]1(C)CC(=O)[C@]2(O)[C@@]3(C)[C@@H](O)CCC(C)(C)[C@@H]3[C@H](O)[C@H](OC(C)=O)[C@@]2(C)O1 [forskolin],inhibition of Hh protein-activated versus agonist-activated cells,Hh signaling,identical inhibition curves
same,effect on pathway activation by the agonist,Hh signaling,inhibitory
CC1=C2C[C@H]3[C@@H](CC=C4C[C@@H](O)CC[C@@]43C)[C@@H]2CC[C@]12O[C@@H]1C[C@H](C)CN[C@H]1[C@H]2C [cyclopamine],inhibition of Hh protein-activated versus agonist-activated cells,Hh signaling,differ in their sensitivity
